The record followed here is US9980943B2, “Methods of treating muscular dystrophy” (BOARD OF REGENTS OF THE NEVADA SYSTEM OF HIGHER EDUCATION, …, priority 2013, dated 2018).

Common to all, as to format: cell-based, mouse
Assay [1] deals with α7 integrin (LacZ reporter in α7+/LacZ myotubes). The assay is described as follows: Myotube α7 integrin FDG assay (Burkin assay in myotubes, 96-well). To be noted: myotubes.
Assay [2] relates to α7 integrin (LacZ reporter in α7βgal+/− myoblasts). The assay can be described thus: Myoblast α7+/LacZ integrin FDG assay (Burkin assay in myoblasts, 96-well). To be noted: α7+/LacZ myoblasts, 96-well.
Assay [3] concerns β-galactosidase in CMV-LacZ C2C12 myotubes. The assay can be described thus: CMV-LacZ secondary screen in C2C12 myotubes (β-Gal stabilizing assay). To be noted: for CMV-LACZ in Myotubes (β-galactosidase activity relative to DMSO): CMV-LacZ C2C12 myotubes, 96-well format. The essentials:
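Stable CMV-LacZ C2C12 clone; six-point curve 0.5–40 μM; duplicates.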

[4] abbreviates: 5 uM, C2C12 CMV-LacZ myotubes, fold relative to DMSO.
[5] abbreviates: 10 uM, C2C12 CMV-LacZ myotubes, fold relative to DMSO.
Setting [6] is: 20 uM, C2C12 CMV-LacZ myotubes, fold relative to DMSO.
[7] abbreviates: 40 uM, C2C12 CMV-LacZ myotubes, fold relative to DMSO.

For `O=C(NCCc1ccc(F)cc1)N[C@@H](Cc1ccccc1)C(=O)O` [MLS001214704-01], the fold induction at 0.5 µM was 0.976 in assay [1] (Mus musculus, Myotube, 0.5 uM, read-out: Burkin Assay in Myotubes (signal relative to DMSO)) and 1.11 in assay [2] (Mus musculus, Myoblast, 48 h, 0.5 uM, read-out: Burkin Assay in Myoblasts, value relative to DMSO). Further, the fold induction at 1 µM in assay [1] (Mus musculus, Myotube, 1 uM, read-out: Burkin Assay in Myotubes (signal relative to DMSO)) worked out at 1.11; in assay [2] (Mus musculus, Myoblast, 48 h, 1 uM, read-out: Burkin Assay in Myoblasts, value relative to DMSO), 1.3. The fold induction at 5 µM in assay [1] (Mus musculus, Myotube, 5 uM, read-out: Burkin Assay in Myotubes (signal relative to DMSO)) worked out at 1.07; in assay [2] (Mus musculus, Myoblast, 48 h, 5 uM, read-out: Burkin Assay in Myoblasts, value relative to DMSO), 1.08; in assay [3] (Mus musculus, C2C12, read-out: CMV-LACZ in Myotubes, signal relative to DMSO, 5 uM, C2C12 CMV-LacZ myotubes, fold relative to DMSO), 0.885. Also, the fold induction at 10 µM came to 1.11 in assay [1] (Mus musculus, Myotube, 10 uM, read-out: Burkin Assay in Myotubes (signal relative to DMSO)); 1.19 in assay [2] (Mus musculus, Myoblast, 48 h, 10 uM, read-out: Burkin Assay in Myoblasts, value relative to DMSO); 1.28 in assay [3] (Mus musculus, C2C12, read-out: CMV-LACZ in Myotubes, signal relative to DMSO, 10 uM, C2C12 CMV-LacZ myotubes, fold relative to DMSO). The fold induction at 20 µM in assay [1] (Mus musculus, Myotube, 20 uM, read-out: Burkin Assay in Myotubes (signal relative to DMSO)) came out at 1.06; in assay [2] (Mus musculus, Myoblast, 48 h, 20 uM, read-out: Burkin Assay in Myoblasts, value relative to DMSO) it was 0.985; in assay [3] (Mus musculus, C2C12, read-out: CMV-LACZ in Myotubes, signal relative to DMSO, 20 uM, C2C12 CMV-LacZ myotubes, fold relative to DMSO), 0.933. Besides, the fold induction at 40 µM in assay [1] (Mus musculus, Myotube, 40 uM, read-out: Burkin Assay in Myotubes (signal relative to DMSO)) amounted to 1.16; in assay [2] (Mus musculus, Myoblast, 48 h, 40 uM, read-out: Burkin Assay in Myoblasts, value relative to DMSO), 1.05; in assay [3] (Mus musculus, C2C12, read-out: CMV-LACZ in Myotubes, signal relative to DMSO, 40 uM, C2C12 CMV-LacZ myotubes, fold relative to DMSO), 0.914.
As for `COc1ccc(NC(=O)c2cccc(N3C(=O)c4ccc(C(=O)Nc5ccc(OC)c(O)c5)cc4C3=O)c2)cc1O` [MLS001124732-01], the “Burkin Assay in Myotubes, α7 integrin LacZ reporter signal relative to DMSO” value in assay [1] (0.5 uM) amounted to 1.0065; in assay [1] (1 uM), 1.029; in assay [1] (5 uM), 0.8759; in assay [1] (10 uM), 0.8964; in assay [1] (20 uM), 0.8719; in assay [1] (40 uM), 0.7888. Also, the “Burkin Assay in Myoblasts, signal relative to DMSO” value was determined as 1.121 in assay [2] (0.5 uM); 1.071 in assay [2] (1 uM); 0.8622 in assay [2] (5 uM); 0.8125 in assay [2] (10 uM); 0.6893 in assay [2] (20 uM); 0.6581 in assay [2] (40 uM). In addition, the “CMV-LACZ in Myotubes, signal relative to DMSO” value in assay [3] (setting [4]) came to 1.025; in assay [3] (setting [5]) it was 1.016; in assay [3] (setting [6]), 1.07; in assay [3] (setting [7]), 0.972.
On to `COC(=O)C(=O)C/C(=N/Nc1ncnc2ccccc12)c1ccc(Cl)cc1` [MLS001174719-01], for which the “Burkin Assay in Myotubes (signal relative to DMSO)” value is 1.135 in assay [1] (0.5 uM); 1.001 in assay [1] (1 uM); 1.128 in assay [1] (5 uM); 1.034 in assay [1] (10 uM); 0.9771 in assay [1] (20 uM); 0.7374 in assay [1] (40 uM). The “Burkin Assay in Myoblasts, value relative to DMSO” value in assay [2] (0.5 uM) is given as 1.053; in assay [2] (1 uM) it was 1.048; in assay [2] (5 uM), 1.013; in assay [2] (10 uM) it was 0.848; in assay [2] (20 uM) it was 0.7524; in assay [2] (40 uM), 0.5265. The “CMV-LACZ in Myotubes, signal relative to DMSO” value in assay [3] (setting [4]) worked out at 0.8551; in assay [3] (setting [5]), 0.832; in assay [3] (setting [6]) it was 0.9254; in assay [3] (setting [7]), 1.108.
Turning to `Cc1cccn2c(=O)c3cc(C(=O)NC4CCCCC4)n(C)c3nc12` [MLS001117351-01], the “Burkin Assay in Myotubes, α7 integrin LacZ reporter signal relative to DMSO” value came to 1.025 in assay [1] (0.5 uM); 0.9924 in assay [1] (1 uM); 0.8315 in assay [1] (5 uM); 0.9463 in assay [1] (10 uM); 0.7669 in assay [1] (20 uM); 0.6986 in assay [1] (40 uM). Moreover, the “Burkin Assay in Myoblasts, signal relative to DMSO” value is listed as 1.103 in assay [2] (0.5 uM); 1.105 in assay [2] (1 uM); 0.7718 in assay [2] (5 uM); 0.7445 in assay [2] (10 uM); 0.7137 in assay [2] (20 uM); 0.4323 in assay [2] (40 uM). Further, the “CMV-LACZ in Myotubes, signal relative to DMSO” value in assay [3] (setting [4]) was determined as 1.016; in assay [3] (setting [5]) it was 1.088; in assay [3] (setting [6]) it was 1.1481; in assay [3] (setting [7]) it was 0.8952.
On to `O=C(c1cccs1)N(Cc1ccco1)c1nc(-c2ccc(F)cc2)cs1` [MLS000122749-01], for which the “Burkin Assay in Myotubes, α7 integrin LacZ reporter signal relative to DMSO” value in assay [1] (0.5 uM) is 1.042; in assay [1] (1 uM), 0.9982; in assay [1] (5 uM) it was 1.096; in assay [1] (10 uM), 1.131; in assay [1] (20 uM) it was 1.256; in assay [1] (40 uM), 0.9306. Moreover, the “Burkin Assay in Myoblasts, signal relative to DMSO” value is reported as 1.113 in assay [2] (0.5 uM); 1.04 in assay [2] (1 uM); 1.026 in assay [2] (5 uM); 1.116 in assay [2] (10 uM); 1.185 in assay [2] (20 uM); 0.948 in assay [2] (40 uM). Also, the “CMV-LACZ in Myotubes, signal relative to DMSO” value in assay [3] (setting [4]) was 1.022; in assay [3] (setting [5]), 1.063; in assay [3] (setting [6]) it was 0.808; in assay [3] (setting [7]), 1.0025.
With `Cc1ccc(NC(=O)CC2COc3ccccc3O2)cc1` (stereo not shown) [MLS000534926-01], the “Burkin Assay in Myotubes (signal relative to DMSO)” value in assay [1] (0.5 uM) is given as 1.026; in assay [1] (1 uM) it was 0.9445; in assay [1] (5 uM), 1.006; in assay [1] (10 uM), 0.9622; in assay [1] (20 uM) it was 1.338; in assay [1] (40 uM), 0.8565. The “Burkin Assay in Myoblasts, value relative to DMSO” value in assay [2] (0.5 uM) is 1.522; in assay [2] (1 uM), 0.9473; in assay [2] (5 uM), 0.8586; in assay [2] (10 uM) it was 0.8832; in assay [2] (20 uM), 0.5996; in assay [2] (40 uM), 0.4222. Also, the “CMV-LACZ in Myotubes (β-galactosidase activity relative to DMSO)” value in assay [3] (5 uM) was 0.9724; in assay [3] (10 uM) it was 0.969; in assay [3] (20 uM), 0.9547; in assay [3] (40 uM) it was 0.844.
As to `Cc1cc(C(=O)Nc2cccc3ccccc23)c(C)o1` [MLS001219345-01], the “Burkin Assay in Myotubes, α7 integrin LacZ reporter signal relative to DMSO” value in assay [1] (0.5 uM) amounted to 0.9416; in assay [1] (1 uM) it was 0.9889; in assay [1] (5 uM), 1.078; in assay [1] (10 uM), 1.0424; in assay [1] (20 uM), 0.7146; in assay [1] (40 uM), 0.9232. Besides, the “Burkin Assay in Myoblasts, signal relative to DMSO” value in assay [2] (0.5 uM) was found to be 0.3027; in assay [2] (1 uM) it was 1.119; in assay [2] (5 uM), 1.046; in assay [2] (10 uM), 1.014; in assay [2] (20 uM) it was 0.9807; in assay [2] (40 uM), 0.9227. In addition, the “CMV-LACZ in Myotubes, signal relative to DMSO” value in assay [3] (setting [4]) amounted to 1.188; in assay [3] (setting [5]) it was 0.8631; in assay [3] (setting [6]), 1.0075; in assay [3] (setting [7]), 1.0255.
